One series concerns MKPs. Description: induction of MKPs substrates in Jurkat cells (Western blotting). The series is classed as cell-based, human. To be noted: for differential effects on MKP substrates (pERK1/2, p38, pJNK): L6 at 1-100 ng/ml. The method, then: FIG. 22 illustrates selective induction of MKPs substrates by L6 and analogs in Jurkat human leukemic cells. Jurkat cells were treated with the compounds for 30 min in culture prior to quantification of MKPs substrates by SDS-PAGE/Western blotting.
Background: A western blot detects proteins with antibodies after separation by electrophoresis.

In the next series the test system is prostate cancer DU145. The experiment in a line: DU145 cell growth (MTT assay). Format: cell-based. To be noted: highest testing dose (5 μg/ml) (FIG. 19E). An excerpt:
(§1) L5, L6 and L6 analogs (Chembridge), mouse IFNγ ELISPOT Kit (R & D System) and antibody against pLck-pY394 or pERK1/2 (Cell Signaling) were purchased from commercial sources. Human Jurkat T cell line and murine B16 melanoma cell line (ATCC) and other cancer cell lines were maintained in […] culture medium supplemented with 10% fetal calf serum (FCS). The effects of chemical compounds on cancer cell growth in culture were quantified by MTT assays following our established procedures.
On the technique in general: Tetrazolium dyes change colour on reduction, which living cells bring about.

The subject of a further series is B16 melanoma cells. The experiment in a line: B16 melanoma cell growth in culture (MTT assay). The series is classed as cell-based, mouse.
Excerpt: as §1

Series [1] deals with melanoma MeI-7, colon cancer MC-26, breast cancer 4T1 and prostate cancer DU145. Description: cyto-toxicity against four other cancer cell lines (MTT assay). The series is classed as cell-based. To be noted: FIGS. 19B, C and D.
Excerpt: as §1

A further series concerns Jurkat cells. The experiment in a line: Jurkat cell apoptosis (Annexin V / 7-AAD, FACS). To be noted: 16 hrs (FIG. 23). The series is classed as cell-based, human. How it is done: FIG. 23 illustrates jurkat cells were treated with L6 and analogs in culture for 16 hrs. Cells were then stained for apoptotic marker Annexin V and cell death marker 7-AAD prior to FACS analysis.

Series [2] deals with HT-29 human colon cancer cells. Description: cytotoxicity of 5FU against HT-29 cells with L6 or analogs (MTT assay). The series is classed as cell-based. To be noted: 5FU 2 μm, 3 days, then 4 days culture (FIG. 24). The method, then:
FIG. 24 illustrates HT-29 cells were treated with L6 or the analogs in the absence or presence of 5FU (2 μm) for 3 days. After washing, the cells were cultured for 4 days prior to quantification of viable cells by MTT assays.

Another series has as its system pERK1/2 in B16 cells. Description: pERK1/2 in B16 cells (Western blotting). The series is classed as cell-based, mouse. To be noted: 10 min (FIG. 20C). The method, then: FIG. 20 illustrates L6 induces pERK1/2 in Jurkat and B16 cells. A and B, Western blotting membranes with samples and probed for the SHP-1 substrates were stripped and then re-probed with an antibody for pERK1/2. C, B16 cells were treated with L6 or L6a6 at […] for 10 min and subjected to SDS-PAGE/Western blotting to quantify pERK1/2.

Take `Cc1ccc(-n2sc3ccccc3c2=O)cc1` [L6a2]: the “MKP predominantly targeted (as indicated by effects on the substrates)” value in the series on MKPs is “targeted a p38-specific MKP”. In addition, the “differential effects on MKP substrates (pERK1/2, p38, pJNK)” value in the series on MKPs (30 min (FIG. 22)) is given as “selectively induced p38 phosphorylation”. Moreover, the DU145 cell growth result in the series on prostate cancer DU145 is on record as “failed to affect DU145 cell growth”. The “dose that completely killed B16 cells (killing dose)” value in the series on B16 melanoma cells (FIG. 19A) was found to be 2.5 µg/mL. Also, the “toxicity toward B16 cells in culture” value in the series with B16 melanoma cells (comparable conditions (FIG. 19A)) is recorded as “little or limited toxicity”. Further, in series [1], the “killing dose relative to L6 and L6a6” value is on record as 5-10 folds higher. Moreover, in the series with Jurkat cells, the Jurkat cell apoptosis result is on record as “apoptosis were induced”.

On to `Cc1cc(-n2sc(Cl)c(C)c2=O)ccc1Cl` [L6a6], for which the “MKP predominantly targeted (as indicated by effects on the substrates)” value with MKPs is given as “mainly acted against MKP1”. In addition, in the series with MKPs (30 min (FIG. 22)), the “dose inducing pJNK and p-p38” value is given as not below 1 ng/ml; the “differential effects on MKP substrates (pERK1/2, p38, pJNK)” value is given as “induced pERK1/2 only at the high doses”. Besides, the “augmentation of 5FU cytotoxicity against HT-29 cells” value in series [2] is “augmented”. The “induction of pERK1/2 in B16 cells” value with pERK1/2 in B16 cells is “pERK1/2-inducing activity”. In addition, the Jurkat cell apoptosis result in the series with Jurkat cells is listed as “apoptosis were induced”.

For the origin of these results see patent US20080051464A1, “Protein phosphatase inhibitors” (The Cleveland Clinic Foundation, priority 2006, published 2008).
